Experimental data from PubChem BioAssay AID1996.
In brackets after ≈: the same amount, converted by molar mass.

details: buffer; pH 7.4; 200.0 µM

| solubility kinetic [µg/mL] | Structure (SMILES) |
| --- | --- |
| 13.1 (≈ 31.8 µM) | Cc1cc(C(=O)Nc2cccc(S(=O)(=O)N3CCOCC3)c2)c2ccccc2n1 |
| 12.8 (≈ 45.2 µM) | O=Cc1cn(CCOc2ccccc2F)c2ccccc12 |
| 2.2 (≈ 6.65 µM) | COc1ccc(Cl)cc1NC(=O)CN1c2ccccc2CC1C (stereo not given) |
| > 35.1 | O=C(NC(=S)N1CCCC1)c1ccccc1 |
| 47.7 (≈ 143 µM) | Cc1[nH]c2ccccc2c1CCNC(=O)CCC(=O)c1ccccc1 |
| > 36.2 | N#C/C(C(N)=O)=C1/CCCN1Cc1ccccc1 |
| 39.5 (≈ 132 µM) | COc1cc(C=O)cc(Cl)c1OC(=O)N1CCOCC1 |
| 1.7 (≈ 5.09 µM) | O=C(Nc1ccccn1)c1sc2cc([N+](=O)[O-])ccc2c1Cl |
| > 50.3 | COc1ccc(S(=O)(=O)NC(Cc2ccccc2)C(=O)O)cc1 (stereo not given) |
| > 48 | Cn1c(=O)oc2cc(S(=O)(=O)Nc3ccc(O)cc3)ccc21 |
| > 59.5 | C[C@H](NC(=O)c1ccco1)C(=O)N1CCN(c2ccc(C(F)(F)F)cn2)CC1 |
| > 65 | CC(OC(=O)CCc1nc2ccccc2c(=O)[nH]1)C(=O)Nc1cccc(C(F)(F)F)c1 (stereo not given) |
| > 50.2 | O=C(NCc1ccccc1CN1CCCC1)c1cc2ccccc2o1 |
| > 42.1 | CSc1ncc(Cl)c(C(=O)Nc2cccnc2)n1 |
| > 44.8 | CC1CC(C)CN(C(=O)Cn2cc(C=O)c3ccccc32)C1 (stereo not given) |
| 36.5 (≈ 101 µM) | Cc1onc(-c2ccccc2)c1CNS(=O)(=O)c1cccc(Cl)c1 |
| 28.5 (≈ 97.5 µM) | O=C(CCc1c[nH]c2ccccc12)NCCc1ccccc1 |
| > 62.6 | COc1cccc(CNC(C)C(=O)Nc2ccc(S(=O)(=O)N3CCCC3)cc2)c1 (stereo not given) |
| > 41 | O=C(O)C1CCCN1S(=O)(=O)c1ccc(F)cc1 (stereo not given) |
| 5.6 (≈ 17 µM) | Cc1cccc2sc(NC(=O)CCNC(=O)c3ccco3)nc12 |
| > 39.4 | O=C(NC(=S)N1CCCCCC1)c1ccccc1 |
| > 54.8 | Cn1nc(C(=O)OCC(=O)NCCc2ccccc2)c2ccccc2c1=O |
| > 35.3 | O=C(Cc1cccs1)Nc1ccccc1F |
| > 44.9 | CCOC(=O)c1csc(NC(=O)CN2CCOCC2)n1 |

The remaining lines, values behind:

| Structure (SMILES) | solubility kinetic [µg/mL] |
| --- | --- |
| O=C(CSc1nncn1-c1ccccc1F)NC1CC1 | > 43.8 |
| O=[N+]([O-])c1ccc(O)c([N+](=O)[O-])c1 | > 27.6 |
| CCCCCSc1ncccc1C(=O)O | > 33.8 |
| COc1ccc(OC)c(C(O)C2CCCCN2)c1.Cl (stereo not given) | > 43.2 |
| C[C@@H]1NC(=O)/C(=C\c2ccccc2Br)NC1=O | 13.1 (≈ 44.4 µM) |
| CCN(CC)C(=O)N[C@H]1C[C@@H]2c3cccc4[nH]cc(c34)C[C@H]2N(C)C1 | 14.1 (≈ 41.4 µM) |
| O=C(NC1CCCC1)C1CCN(C(=O)c2ccc(Cl)cc2)CC1 | > 50.2 |
| COc1ccc(Nc2nccc3c2ncn3C)cc1 | > 38.1 |
| Cc1ccc(C(C)C)c(OCC(=O)OCC(=O)NC2CC2)c1 | > 45.8 |
| CC(C)(C)NC(=S)N1CCn2cccc2C1c1cccnc1 (stereo not given) | 33.5 (≈ 107 µM) |
| CC(C)CN(C(=O)C1CCC1)c1c(N)n(Cc2ccccc2)c(=O)[nH]c1=O | 36.6 (≈ 98.8 µM) |
| CCN(CC(=O)NC(=O)NC1CCCCC1)Cc1ccccc1 | 47 (≈ 148 µM) |
| O=C(c1cc(Br)c[nH]1)N1CCSCC1 | 29.6 (≈ 108 µM) |
| COc1ccc(Cl)cc1NC(=O)CN(C)CC(=O)N(CC(C)C)c1c(N)n(CC(C)C)c(=O)[nH]c1=O | 77.9 (≈ 149 µM) |
| CN1CCN(C(=O)CCC(=O)O)CC1 | 26.5 (≈ 132 µM) |
| CCOC(=O)c1cc2c(ccn2C)n1CC(=O)N1C(C)CCCC1C (stereo not given) | > 51.8 |
| CC(C)(Oc1ccc(Cl)cc1)C(=O)NC1CC1 | > 38.1 |
| O=C(c1cc(-c2ccc3c(c2)OCO3)on1)N1CCCCC1 | 5.7 (≈ 19 µM) |

| Structure (SMILES) | solubility kinetic [µg/mL] |
| --- | --- |
| CCCCOc1ccc(CON(C(C)=O)C(C)=O)cc1Cl | 2.6 (≈ 8.29 µM) |
| Cc1cc(C)cc(OCCCn2ccnc2)c1 | 26.4 (≈ 115 µM) |
| CCCCN(C(=O)C1CCC1)c1c(N)n(CCC)c(=O)[nH]c1=O | > 48.4 |
| Cc1cc(C(=O)CCC(=O)Nc2ncccc2C)c(C)s1 | 26.1 (≈ 86.3 µM) |
| O=C(NCCCCc1ccccc1)C1CCCC1 | 33.1 (≈ 135 µM) |
| CCOC(=O)CSc1nc(C)c2cc(C)c(C)cc2n1 | 6 (≈ 20.7 µM) |
| Cc1ccc2[nH]cc(CCNC(=O)/C=C/c3ccco3)c2c1 | 36.9 (≈ 125 µM) |
| Cc1ccc2[nH]c(C)c(CCNCc3cccnc3)c2c1.Cl | 47.1 |
| OCCCN=C1CCCc2c1[nH]c1ccc(Cl)cc21 | 14.4 (≈ 52 µM) |
| O=C(Nc1cc(C(F)(F)F)ccc1Cl)c1cccnc1 | 32.7 (≈ 109 µM) |
| CC12CC3(C)CC(C)(C1)CC(C(N)=O)(C2)C3 | 31 (≈ 140 µM) |
| CCc1cccc2c(=O)c(C(=O)NCCCOC)c[nH]c12 | > 43.3 |
| Cc1sc2nc(-c3ccc(Br)cc3)oc(=O)c2c1C | < 0.7 |
| OCCN(Cc1ccccc1)Cc1nc(CC2CC2)no1 | > 43.1 |
| Nc1ccccc1SCc1ccccc1 | 4 (≈ 18.6 µM) |
| CC(=O)N1CCN(c2cc(N3CCCC3)c(F)cc2[N+](=O)[O-])CC1 | > 50.5 |
| CCOC(=O)c1cc(C#N)c(SCC(=O)O)[nH]c1=O | 38.8 (≈ 137 µM) |
| CCOc1ccc(/C=C/c2nc(C#N)c(NCCCN(C)C)o2)cc1 | > 51.1 |
